Results: paper PMC12102759 (Protein Science : A Publication of the Protein Society, 2025)

Tested on: PABPC1 PABC
Assay type: binding, human
Conditions: DMS-BM library, bait PABPC1 PABC, row aa = residue at this position
[1] = prey ATXN2, peptide TLNPNAKEFNPRSFSQ, F = wild type
[2] = prey ATXN2, peptide KSTLNPNAKEFNPRSF, F = wild type
[3] = prey ATXN2, peptide TLNPNAKEFNPRSFSQ, K = wild type
[4] = prey ATXN2, peptide TLNPNAKEFNPRSFSQ, A = wild type
[5] = prey ATXN2, TLNPNAKEFNPRSF(averaged) over the two overlapping peptides, N = wild type
[6] = prey ATXN2, peptide KSTLNPNAKEFNPRSF, L = wild type
[7] = prey ATXN2, peptide TLNPNAKEFNPRSFSQ, R = wild type
[8] = prey ATXN2, peptide KSTLNPNAKEFNPRSF, N = wild type
[9] = prey ATXN2, peptide TLNPNAKEFNPRSFSQ, N = wild type
[10] = prey ATXN2, TLNPNAKEFNPRSF(averaged) over the two overlapping peptides, F = wild type
[11] = prey ATXN2, peptide TLNPNAKEFNPRSFSQ, S = wild type
[12] = prey ATXN2, peptide KSTLNPNAKEFNPRSF, K = wild type
[13] = prey ATXN2, peptide TLNPNAKEFNPRSFSQ, L = wild type
[14] = prey ATXN2, TLNPNAKEFNPRSF(averaged) over the two overlapping peptides, P = wild type
[15] = prey ATXN2, peptide KSTLNPNAKEFNPRSF, T = wild type
[16] = prey ATXN2, peptide KSTLNPNAKEFNPRSF, P = wild type
[17] = prey ATXN2, peptide TLNPNAKEFNPRSFSQ, P = wild type

## TLNPNAKEFNPRSFSQ T1A (ALNPNAKEFNPRSFSQ)
Prey ATXN2, peptide TLNPNAKEFNPRSFSQ, T = wild type
  DMS-derived PSSM value, position T1: 0.03403

## TLNPNAKEFNPRSFSQ F14Y (TLNPNAKEFNPRSYSQ)
[1]
  DMS-derived PSSM value, position F14: 0.07249

## KSTLNPNAKEFNPRSF F16A (KSTLNPNAKEFNPRSA)
[2]
  DMS-derived PSSM value, position F16: 0.08044

## TLNPNAKEFNPRSFSQ K7A (TLNPNAAEFNPRSFSQ)
[3]
  DMS-derived PSSM value, position K7: 0.2382

## TLNPNAKEFNPRSFSQ A6V (TLNPNVKEFNPRSFSQ)
[4]
  DMS-derived PSSM value, position A6: 0.2197

## TLNPNAKEFNPRSF(averaged) N3Y (TLYPNAKEFNPRSF)
[5]
  DMS-derived PSSM value (averaged), position N3: 0.00806

## TLNPNAKEFNPRSF(averaged) N3R (TLRPNAKEFNPRSF)
[5]
  DMS-derived PSSM value (averaged), position N3: 0.012

## KSTLNPNAKEFNPRSF L4G (KSTGNPNAKEFNPRSF)
[6]
  DMS-derived PSSM value, position L4: 0

## TLNPNAKEFNPRSFSQ R12P (TLNPNAKEFNPPSFSQ)
[7]
  DMS-derived PSSM value, position R12: 0.005288

## KSTLNPNAKEFNPRSF N12V (KSTLNPNAKEFVPRSF)
[8]
  DMS-derived PSSM value, position N12: 0.2093

## TLNPNAKEFNPRSFSQ A6L (TLNPNLKEFNPRSFSQ)
[4]
  DMS-derived PSSM value, position A6: 0

## TLNPNAKEFNPRSF(averaged) N10D (TLNPNAKEFDPRSF)
[5]
  DMS-derived PSSM value (averaged), position N10: 0.04905

## TLNPNAKEFNPRSFSQ N3T (TLTPNAKEFNPRSFSQ)
[9]
  DMS-derived PSSM value, position N3: 0.01993

## TLNPNAKEFNPRSF(averaged) F14S (TLNPNAKEFNPRSS)
[10]
  DMS-derived PSSM value (averaged), position F14: 0.01539

## KSTLNPNAKEFNPRSF N12L (KSTLNPNAKEFLPRSF)
[8]
  DMS-derived PSSM value, position N12: 0

## TLNPNAKEFNPRSFSQ S13H (TLNPNAKEFNPRHFSQ)
[11]
  DMS-derived PSSM value, position S13: 0.01388

## TLNPNAKEFNPRSF(averaged) F14G (TLNPNAKEFNPRSG)
[10]
  DMS-derived PSSM value (averaged), position F14: 0.002756

## KSTLNPNAKEFNPRSF K9Y (KSTLNPNAYEFNPRSF)
[12]
  DMS-derived PSSM value, position K9: 0.02328

## TLNPNAKEFNPRSF(averaged) K7N (TLNPNANEFNPRSF)
Prey ATXN2, TLNPNAKEFNPRSF(averaged) over the two overlapping peptides, K = wild type
  DMS-derived PSSM value (averaged), position K7: 0.09977

## TLNPNAKEFNPRSFSQ S15Y (TLNPNAKEFNPRSFYQ)
[11]
  DMS-derived PSSM value, position S15: 0.004758

## KSTLNPNAKEFNPRSF N7W (KSTLNPWAKEFNPRSF)
[8]
  DMS-derived PSSM value, position N7: 0

## TLNPNAKEFNPRSFSQ L2M (TMNPNAKEFNPRSFSQ)
[13]
  DMS-derived PSSM value, position L2: 0.1261

## TLNPNAKEFNPRSF(averaged) F14D (TLNPNAKEFNPRSD)
[10]
  DMS-derived PSSM value (averaged), position F14: 0.01885

## TLNPNAKEFNPRSF(averaged) P11A (TLNPNAKEFNARSF)
[14]
  DMS-derived PSSM value (averaged), position P11: 0.00277

## KSTLNPNAKEFNPRSF R14T (KSTLNPNAKEFNPTSF)
Prey ATXN2, peptide KSTLNPNAKEFNPRSF, R = wild type
  DMS-derived PSSM value, position R14: 0.1913

## TLNPNAKEFNPRSFSQ F14I (TLNPNAKEFNPRSISQ)
[1]
  DMS-derived PSSM value, position F14: 0.0189

## TLNPNAKEFNPRSFSQ E8K (TLNPNAKKFNPRSFSQ)
Prey ATXN2, peptide TLNPNAKEFNPRSFSQ, E = wild type
  DMS-derived PSSM value, position E8: 0

## TLNPNAKEFNPRSF(averaged) N10Y (TLNPNAKEFYPRSF)
[5]
  DMS-derived PSSM value (averaged), position N10: 0.1006

## TLNPNAKEFNPRSFSQ L2H (THNPNAKEFNPRSFSQ)
[13]
  DMS-derived PSSM value, position L2: 0

## TLNPNAKEFNPRSFSQ L2Y (TYNPNAKEFNPRSFSQ)
[13]
  DMS-derived PSSM value, position L2: 0.1104

## TLNPNAKEFNPRSFSQ L2K (TKNPNAKEFNPRSFSQ)
[13]
  DMS-derived PSSM value, position L2: 0.001564

## TLNPNAKEFNPRSF(averaged) P4T (TLNTNAKEFNPRSF)
[14]
  DMS-derived PSSM value (averaged), position P4: 0.01555

## TLNPNAKEFNPRSF(averaged) P11T (TLNPNAKEFNTRSF)
[14]
  DMS-derived PSSM value (averaged), position P11: 0.141

## KSTLNPNAKEFNPRSF F11N (KSTLNPNAKENNPRSF)
[2]
  DMS-derived PSSM value, position F11: 0.09626

## TLNPNAKEFNPRSF(averaged) N3S (TLSPNAKEFNPRSF)
[5]
  DMS-derived PSSM value (averaged), position N3: 0.2635

## TLNPNAKEFNPRSFSQ S13V (TLNPNAKEFNPRVFSQ)
[11]
  DMS-derived PSSM value, position S13: 0.02255

## KSTLNPNAKEFNPRSF T3G (KSGLNPNAKEFNPRSF)
[15]
  DMS-derived PSSM value, position T3: 0.0785

## TLNPNAKEFNPRSF(averaged) L2H (THNPNAKEFNPRSF)
Prey ATXN2, TLNPNAKEFNPRSF(averaged) over the two overlapping peptides, L = wild type
  DMS-derived PSSM value (averaged), position L2: 0

## KSTLNPNAKEFNPRSF K9M (KSTLNPNAMEFNPRSF)
[12]
  DMS-derived PSSM value, position K9: 0.1105

## KSTLNPNAKEFNPRSF L4S (KSTSNPNAKEFNPRSF)
[6]
  DMS-derived PSSM value, position L4: 0

## TLNPNAKEFNPRSFSQ K7T (TLNPNATEFNPRSFSQ)
[3]
  DMS-derived PSSM value, position K7: 0.006845

## KSTLNPNAKEFNPRSF F11I (KSTLNPNAKEINPRSF)
[2]
  DMS-derived PSSM value, position F11: 0

## KSTLNPNAKEFNPRSF K9L (KSTLNPNALEFNPRSF)
[12]
  DMS-derived PSSM value, position K9: 0.07486

## KSTLNPNAKEFNPRSF P6R (KSTLNRNAKEFNPRSF)
[16]
  DMS-derived PSSM value, position P6: 0

## TLNPNAKEFNPRSF(averaged) N3M (TLMPNAKEFNPRSF)
[5]
  DMS-derived PSSM value (averaged), position N3: 0

## KSTLNPNAKEFNPRSF T3Y (KSYLNPNAKEFNPRSF)
[15]
  DMS-derived PSSM value, position T3: 0.005309

## TLNPNAKEFNPRSFSQ R12Y (TLNPNAKEFNPYSFSQ)
[7]
  DMS-derived PSSM value, position R12: 0.05186

## KSTLNPNAKEFNPRSF E10M (KSTLNPNAKMFNPRSF)
Prey ATXN2, peptide KSTLNPNAKEFNPRSF, E = wild type
  DMS-derived PSSM value, position E10: 0.002857

## TLNPNAKEFNPRSFSQ P11R (TLNPNAKEFNRRSFSQ)
[17]
  DMS-derived PSSM value, position P11: 0.006355

## TLNPNAKEFNPRSF(averaged) A6H (TLNPNHKEFNPRSF)
Prey ATXN2, TLNPNAKEFNPRSF(averaged) over the two overlapping peptides, A = wild type
  DMS-derived PSSM value (averaged), position A6: 0

## KSTLNPNAKEFNPRSF P6F (KSTLNFNAKEFNPRSF)
[16]
  DMS-derived PSSM value, position P6: 0

## TLNPNAKEFNPRSF(averaged) F9D (TLNPNAKEDNPRSF)
[10]
  DMS-derived PSSM value (averaged), position F9: 0.001318

## KSTLNPNAKEFNPRSF T3D (KSDLNPNAKEFNPRSF)
[15]
  DMS-derived PSSM value, position T3: 0.0007076

## TLNPNAKEFNPRSFSQ N5R (TLNPRAKEFNPRSFSQ)
[9]
  DMS-derived PSSM value, position N5: 0.004201

## TLNPNAKEFNPRSF(averaged) R12N (TLNPNAKEFNPNSF)
Prey ATXN2, TLNPNAKEFNPRSF(averaged) over the two overlapping peptides, R = wild type
  DMS-derived PSSM value (averaged), position R12: 0.02727

## TLNPNAKEFNPRSFSQ R12T (TLNPNAKEFNPTSFSQ)
[7]
  DMS-derived PSSM value, position R12: 0.06242

## TLNPNAKEFNPRSFSQ S15D (TLNPNAKEFNPRSFDQ)
[11]
  DMS-derived PSSM value, position S15: 0.0138

## KSTLNPNAKEFNPRSF S2G (KGTLNPNAKEFNPRSF)
Prey ATXN2, peptide KSTLNPNAKEFNPRSF, S = wild type
  DMS-derived PSSM value, position S2: 0.02803

## TLNPNAKEFNPRSF(averaged) N5R (TLNPRAKEFNPRSF)
[5]
  DMS-derived PSSM value (averaged), position N5: 0.004628

## TLNPNAKEFNPRSFSQ P4A (TLNANAKEFNPRSFSQ)
[17]
  DMS-derived PSSM value, position P4: 0.02051

## KSTLNPNAKEFNPRSF K9V (KSTLNPNAVEFNPRSF)
[12]
  DMS-derived PSSM value, position K9: 0.0001287
